Results taken from PMC3618660 (Journal of medicinal chemistry, 2013).

Assays:
mu opioid receptor (MOR) = mu opioid receptor (MOR) (Rattus norvegicus, UniProt P33535); assay: [3H]diprenorphine competitive displacement binding, C6-MOR membranes
C57BL/6 mice = assay: mouse warm water tail withdrawal; format: in vivo
[1] = target: delta opioid receptor (DOR) (Rattus norvegicus, UniProt P33533); assay: antagonism of DPDPE-stimulated GTPγS binding at DOR; format: biochemical
Sequence of delta opioid receptor (DOR) (P33533 whole entry): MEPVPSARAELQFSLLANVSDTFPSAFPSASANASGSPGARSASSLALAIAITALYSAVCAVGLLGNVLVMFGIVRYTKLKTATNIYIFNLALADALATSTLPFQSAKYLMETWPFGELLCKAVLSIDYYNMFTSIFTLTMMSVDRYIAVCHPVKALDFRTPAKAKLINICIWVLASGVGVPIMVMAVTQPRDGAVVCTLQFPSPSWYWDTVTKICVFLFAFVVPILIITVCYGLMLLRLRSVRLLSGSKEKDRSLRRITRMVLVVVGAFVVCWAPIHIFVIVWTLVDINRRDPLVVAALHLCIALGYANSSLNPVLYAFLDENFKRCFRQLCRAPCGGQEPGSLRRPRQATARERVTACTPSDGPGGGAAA

Sequence of mu opioid receptor (MOR) (P33535 whole entry): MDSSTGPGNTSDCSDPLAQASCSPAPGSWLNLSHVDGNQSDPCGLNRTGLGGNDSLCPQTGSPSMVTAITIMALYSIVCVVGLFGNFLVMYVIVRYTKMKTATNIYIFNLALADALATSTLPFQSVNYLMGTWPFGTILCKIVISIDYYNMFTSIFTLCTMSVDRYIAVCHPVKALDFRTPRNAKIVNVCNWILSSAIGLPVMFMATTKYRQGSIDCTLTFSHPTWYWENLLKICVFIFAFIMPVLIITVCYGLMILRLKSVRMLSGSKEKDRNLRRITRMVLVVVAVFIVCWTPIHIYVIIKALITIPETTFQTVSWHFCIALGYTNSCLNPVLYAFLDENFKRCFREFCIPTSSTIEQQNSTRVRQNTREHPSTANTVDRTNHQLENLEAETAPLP

Molecule `Cc1cc(O)cc(C)c1C[C@H](N)C(=O)N[C@@H]1CCNc2ccc(Cc3cccc4ccccc34)cc21` [Compound 15b, (2S)-2-Amino-3-(4-hydroxy-2,6-dimethylphenyl)-N-(6-(naphthalen-1-ylmethyl)-1,2,3,4-tetrahydroquinolin-4-yl)propanamide] has a Ki (mu opioid receptor (MOR)) of 0.76 ± 0.14 nM.
With `Cc1cc(O)cc(C)c1C[C@H](N)C(=O)N[C@@H]1CCNc2ccc(Cc3ccccc3)cc21` [1 (4R)] the ED50 (C57BL/6 mice; Mus musculus, ip, read-out: ED50, tail withdrawal latency) was ~6 µmol/kg, the “antinociceptive potency compared with morphine” value (C57BL/6 mice; mouse WWTW after intraperitoneal administration) was “approximately equipotent to morphine” and the “time maximal antinociception is maintained” value (C57BL/6 mice; mouse WWTW time course, 10 mg/kg ip) was “approximately 60 minutes”. The “effect of naltrexone pretreatment on dose/response curve” value (C57BL/6 mice; naltrexone 1mg/kg ip, 30 min pretreatment, mouse WWTW) was “rightward shift”.
`Cc1cc(O)cc(C)c1C[C@H](N)C(=O)NC1CCNc2ccc(Cc3ccc4ccccc4c3)cc21` (stereo partly drawn) [Compound 15c, (2S)-2-Amino-3-(4-hydroxy-2,6-dimethylphenyl)-N-(6-(naphthalen-2-ylmethyl)-1,2,3,4-tetrahydroquinolin-4-yl)propanamide] gave a Kb [1] of 34.3 nM.
